The values that follow come from ChEMBL document CHEMBL1201862, “PubChem BioAssay data set” (2004).

Structures are written as SMILES.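 Protocol summary: plate cells (96-well), add compound at 5 concentrations, incubate 48 h, interpolate endpoints linearly. The concentration for 50% growth inhibition is given as GI50.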 Activity calls are given as the source filed them. Cut-off read from the data, not from the text of the source: active = GI50 up to about 1.1 µM and inactive = higher. Where a SMILES comes first, the peptide text is derived from it. The star is where a group is joined. Cbz = O=C(OCc1ccccc1)*

Test systems include HCT-15; EKVX; HT-29; MDA-MB-435; UACC-257; Malme-3M; KM12; NCI-H226; OVCAR-8; PC-3; RPMI-8226; RXF 393; SN12C; IGROV-1; OVCAR-3; HCC 2998; HL-60; SK-MEL-28; HOP-92; TK-10.
Common to all, as to assay: inhibition of tumour cell growth, NCI panel, 48 h

Regarding `COc1ccc(-c2nc(O)c3ccccc3n2)c(OC)c1`, the GI50 in the test with HCT-15 is greater than 100 µM; in the test on EKVX, > 100 µM (inactive); with HT-29, > 100 µM (inactive); with MDA-MB-435, > 100 µM (inactive); with UACC-257 it was > 100 µM (inactive); with Malme-3M it was > 100 µM (inactive). The GI50 with KM12 was > 100 µM (inactive); in the test with NCI-H226, > 100 µM (inactive); in the test on OVCAR-8, > 100 µM (inactive); in the test with PC-3 it was > 100 µM (inactive); with RPMI-8226, 29.1 µM (inactive); in the test with RXF 393, > 100 µM (inactive). The GI50 with SN12C, in the test with IGROV-1, in the test on OVCAR-3 and with HCC 2998 was > 100 µM (inactive) in each case.
As to `O=C(NC12CC3CC(CC(C3)C1)C2)C(=O)c1c[nH]c2ccc(Br)cc12`, the GI50 with HCT-15 was 5.79 µM; in the test with EKVX, 73.1 µM (inactive); in the test with HT-29, 3.71 µM (inactive); in the test with UACC-257, 43.4 µM (inactive); with Malme-3M, 17.9 µM (inactive); in the test with KM12, 7.08 µM (inactive). Moreover, the GI50 in the test on HL-60 is 5.02 µM (inactive); in the test with SK-MEL-28, 43.1 µM (inactive); in the test on NCI-H226 it was 20.2 µM (inactive); in the test on OVCAR-8 it was 18.1 µM (inactive); in the test on RPMI-8226, 6.67 µM (inactive); in the test with RXF 393 it was 2.43 µM (inactive). In addition, the GI50 was 18.5 µM (inactive) in the test on SN12C; 45.5 µM (inactive) in the test on IGROV-1; 20.8 µM (inactive) in the test with HOP-92; 11.2 µM (inactive) in the test on OVCAR-3; 22.6 µM (inactive) in the test on HCC 2998; 28.8 µM (inactive) with TK-10.
With `O=C1CC2CCN(C(=O)c3ccccc3)CC2CCN1` (centres undefined), the GI50 in the test with HCT-15 was greater than 100 µM; in the test with EKVX it was > 100 µM (inactive); in the test with HT-29 it was > 100 µM (inactive); in the test with UACC-257, > 100 µM (inactive); with Malme-3M, > 100 µM (inactive); in the test on KM12, > 100 µM (inactive). Moreover, the GI50 in the test on HL-60, in the test with SK-MEL-28, with NCI-H226, in the test on OVCAR-8, in the test on RPMI-8226 and with RXF 393 was > 100 µM (inactive) throughout. The GI50 with SN12C, with IGROV-1, with HOP-92, in the test with OVCAR-3, with HCC 2998 and in the test on TK-10 was > 100 µM (inactive) in each case.
As for `O=[N+]([O-])C(/C(Cl)=C(/Cl)N1CCCCC1)=C1\NCCO1`, the GI50 was greater than 100 µM in the test on HCT-15; > 100 µM (inactive) in the test with EKVX; > 100 µM (inactive) in the test with HT-29; > 100 µM (inactive) in the test with MDA-MB-435; > 100 µM (inactive) in the test on UACC-257; > 100 µM (inactive) with Malme-3M. Besides, the GI50 in the test on KM12, in the test with SK-MEL-28, with NCI-H226, in the test with OVCAR-8, with PC-3 and in the test on RPMI-8226 was > 100 µM (inactive) throughout. The GI50 in the test on SN12C, with OVCAR-3 and with HCC 2998 was > 100 µM (inactive) throughout.
With `CCOC(=O)/C(=C\n1c(=O)sc2ccccc21)C(=O)c1ccccc1`, the GI50 was greater than 100 µM with HCT-15; > 100 µM (inactive) in the test on EKVX; > 100 µM (inactive) in the test with HT-29; > 100 µM (inactive) with MDA-MB-435; > 100 µM (inactive) in the test on UACC-257; > 100 µM (inactive) in the test on Malme-3M. For the same compound, the GI50 in the test on KM12 was > 100 µM (inactive); in the test on HL-60 it was 33.5 µM (inactive); with SK-MEL-28, > 100 µM (inactive); with NCI-H226, > 100 µM (inactive); in the test with OVCAR-8 it was > 100 µM (inactive); in the test with PC-3, > 100 µM (inactive). The GI50 in the test with RPMI-8226 is 39.6 µM (inactive); with RXF 393 it was > 100 µM (inactive); in the test with SN12C, > 100 µM (inactive); in the test with IGROV-1 it was 20 µM (inactive); in the test on HCC 2998, > 100 µM (inactive).
`[O-][S+](CC1(O)CCCCC1)c1ccccc1` (centres undefined): the GI50 with HCT-15 was greater than 100 µM; in the test with EKVX it was > 100 µM (inactive); in the test on HT-29, > 100 µM (inactive); in the test on UACC-257 it was > 100 µM (inactive); in the test with Malme-3M, > 100 µM (inactive); with KM12, > 100 µM (inactive). The GI50 in the test on HL-60 was > 100 µM (inactive); in the test on SK-MEL-28, > 100 µM (inactive); in the test with NCI-H226, > 100 µM (inactive); in the test with OVCAR-8, > 100 µM (inactive); in the test with PC-3, > 100 µM (inactive); in the test with RPMI-8226 it was < 0.01 µM (active). Besides, the GI50 with RXF 393, in the test with SN12C, with IGROV-1, in the test with HCC 2998 and in the test on TK-10 was > 100 µM (inactive) in each case.
For `CSc1nc(C)c(CCCl)c(Cl)n1`, the GI50 is greater than 100 µM in the test with HCT-15; > 100 µM (inactive) in the test with EKVX; > 100 µM (inactive) with HT-29; 34.1 µM (inactive) in the test with MDA-MB-435; > 100 µM (inactive) in the test with UACC-257; > 100 µM (inactive) with Malme-3M. Moreover, the GI50 in the test on SK-MEL-28 was > 100 µM (inactive); with OVCAR-8 it was > 100 µM (inactive); in the test on PC-3, > 100 µM (inactive); in the test with RXF 393 it was > 100 µM (inactive); in the test with SN12C, 52.6 µM (inactive); in the test on IGROV-1, > 100 µM (inactive). Also, the GI50 in the test with OVCAR-3, in the test on HCC 2998 and in the test on TK-10 was > 100 µM (inactive) each time.
Consider `N#C[C@H]1C(=O)C(c2nc3ccccc3[nH]2)S[C@H]1c1ccccc1` (some centres undefined), for which the GI50 in the test with HCT-15 is 38 µM; in the test on EKVX, 28.9 µM (inactive); in the test with HT-29 it was 32.2 µM (inactive); in the test with MDA-MB-435 it was 35 µM (inactive); in the test on UACC-257 it was 63.2 µM (inactive); in the test on Malme-3M, 29.9 µM (inactive). The GI50 is 44.2 µM (inactive) with KM12; 25.4 µM (inactive) with HL-60; 54.8 µM (inactive) in the test with SK-MEL-28; 85.3 µM (inactive) with NCI-H226; 43.2 µM (inactive) in the test on OVCAR-8; 25.5 µM (inactive) with RPMI-8226. Moreover, the GI50 in the test with RXF 393 was 19.1 µM (inactive); with SN12C, 20 µM (inactive); in the test with IGROV-1, 26.9 µM (inactive); in the test on HOP-92 it was 25.5 µM (inactive); with OVCAR-3, 31 µM (inactive); with HCC 2998, 50 µM (inactive). Also, the GI50 in the test with TK-10 was 95.9 µM (inactive).
On to `C/C=C1\CC(C(=O)OCC)CCCCCCCCCCC1=O` (centres undefined), for which the GI50 with HCT-15 is 34.6 µM; in the test on EKVX, 41.5 µM (inactive); in the test with HT-29 it was 46.8 µM (inactive); in the test with MDA-MB-435, 17.5 µM (inactive); in the test on UACC-257, 37.8 µM (inactive); with Malme-3M, 32.4 µM (inactive). Moreover, the GI50 in the test with KM12 is 41.3 µM (inactive); in the test with HL-60, 36.6 µM (inactive); in the test with SK-MEL-28 it was > 100 µM (inactive); in the test on NCI-H226 it was 25.1 µM (inactive); in the test on OVCAR-8, 43.3 µM (inactive); in the test on PC-3, 47.9 µM (inactive). The GI50 in the test on RXF 393 was 55.8 µM (inactive); in the test on SN12C, 26.6 µM (inactive); with IGROV-1, 31.8 µM (inactive); in the test on TK-10, > 100 µM (inactive).
For `Cc1ccc(-c2cc[n+]3c(n2)oc2ccccc23)cc1`, the GI50 in the test on HCT-15 was greater than 100 µM; with EKVX it was 26.4 µM (inactive); in the test with MDA-MB-435, 24.7 µM (inactive); with UACC-257 it was 18.8 µM (inactive); in the test on Malme-3M, 13.2 µM (inactive); in the test on KM12 it was 47.1 µM (inactive). Besides, the GI50 was 10.8 µM (inactive) in the test on HL-60; 22.1 µM (inactive) in the test with SK-MEL-28; 21.2 µM (inactive) in the test with OVCAR-8; 12.5 µM (inactive) with RPMI-8226; > 100 µM (inactive) in the test on SN12C; 26.8 µM (inactive) in the test on IGROV-1. In addition, the GI50 in the test on HOP-92 was 14.2 µM (inactive); in the test on OVCAR-3 it was 17.7 µM (inactive); in the test on HCC 2998 it was 30.5 µM (inactive).
`O=C1Nc2ccccc2C(=O)O/C(Cc2ccccc2)=N\c2ccccc21`: the GI50 with HCT-15 was greater than 100 µM; in the test on EKVX it was > 100 µM (inactive); with HT-29, > 100 µM (inactive); in the test with MDA-MB-435 it was > 100 µM (inactive); in the test on UACC-257 it was 54.6 µM (inactive); in the test with KM12, > 100 µM (inactive). Besides, the GI50 with HL-60, in the test with SK-MEL-28, with NCI-H226, with OVCAR-8, in the test on PC-3 and in the test on RPMI-8226 was > 100 µM (inactive) in each case. Moreover, the GI50 in the test on RXF 393 is > 100 µM (inactive); with SN12C, > 100 µM (inactive); with IGROV-1 it was > 100 µM (inactive); with OVCAR-3, > 100 µM (inactive); in the test with HCC 2998, 82.8 µM (inactive); with TK-10, > 100 µM (inactive).
As for `CCOC(=O)CCC(NC(=O)C(CC(=O)OC)NC(=O)OCc1ccccc1)C(=O)NC(CC(=O)OC)C(=O)NC(CCC(=O)OCC)C(=O)NC(CC(=O)OC)C(=O)NC(CCC(=O)OCC)C(=O)NC(CC(=O)OCC)C(=O)OCC` (centres undefined) (Cbz-D(OMe)E(OEt)D(OMe)E(OEt)D(OMe)E(OEt)D(OEt)-OEt; configuration not given here), the GI50 in the test on HCT-15 is greater than 100 µM; in the test with HT-29, > 100 µM (inactive); in the test on MDA-MB-435, > 100 µM (inactive); in the test with UACC-257 it was > 100 µM (inactive); in the test on Malme-3M it was > 100 µM (inactive); in the test on HL-60 it was > 100 µM (inactive). The GI50 with NCI-H226, in the test on OVCAR-8, in the test with PC-3, in the test on RPMI-8226, with SN12C and with IGROV-1 was > 100 µM (inactive) each time. Further, the GI50 in the test on OVCAR-3, in the test with HCC 2998 and in the test with TK-10 was > 100 µM (inactive) throughout.
